# According to ChEMBL document CHEMBL1201862, “PubChem BioAssay data set” (2004):
# Active and inactive are the calls of the source.
# What was measured:
# Large T antigen = Large T antigen (Simian virus 40, UniProt P03070); format: functional, Betapolyomavirus macacae;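 also: Confirmatory-stage PubChem screen for compounds that inhibit SV40 T antigen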
# [1] = molecular target: Histone-lysine N-methyltransferase NSD2 (Homo sapiens, UniProt O96028); format: biochemical
# [2] = molecular target: T1, DNA repair protein RAD52 homolog (Homo sapiens, UniProt P43351); format: functional, biochemical
# T1 sequence (P43351 whole entry): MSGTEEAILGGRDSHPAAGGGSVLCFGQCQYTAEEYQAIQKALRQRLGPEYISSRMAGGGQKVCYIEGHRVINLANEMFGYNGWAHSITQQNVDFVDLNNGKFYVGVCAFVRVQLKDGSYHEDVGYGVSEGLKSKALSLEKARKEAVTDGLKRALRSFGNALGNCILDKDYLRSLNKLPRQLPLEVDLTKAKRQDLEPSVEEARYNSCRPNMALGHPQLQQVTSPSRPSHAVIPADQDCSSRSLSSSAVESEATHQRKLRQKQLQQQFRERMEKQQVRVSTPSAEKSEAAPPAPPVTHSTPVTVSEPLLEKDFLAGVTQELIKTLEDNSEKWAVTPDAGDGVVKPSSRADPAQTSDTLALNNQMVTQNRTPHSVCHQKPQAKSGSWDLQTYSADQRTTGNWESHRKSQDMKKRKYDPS
# [3] = molecular target: FAD-linked sulfhydryl oxidase ALR (Homo sapiens, UniProt P55789); experiment: ALR-catalysed DTT oxidation blockers – biochemical, H2O2 detection, luminescence, cherry-pick, dose response (AID 493248)
# [4] = molecular target: T2, Heat shock factor protein 1 (Mus musculus, UniProt P38532); experiment: decrease of HSF1-responsive luciferase luminescence – cell-based, NIH3T3, dose retest, confirmation (AID 2382); format: functional;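 also: NIH3T3 fibroblasts with HSF1-driven luciferase reporter stressed by proteasome inhibitor MG132; luminescence from HSF1-driven luciferase expression after 8 hours of MG132 stress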
# T2 sequence (P38532 whole entry): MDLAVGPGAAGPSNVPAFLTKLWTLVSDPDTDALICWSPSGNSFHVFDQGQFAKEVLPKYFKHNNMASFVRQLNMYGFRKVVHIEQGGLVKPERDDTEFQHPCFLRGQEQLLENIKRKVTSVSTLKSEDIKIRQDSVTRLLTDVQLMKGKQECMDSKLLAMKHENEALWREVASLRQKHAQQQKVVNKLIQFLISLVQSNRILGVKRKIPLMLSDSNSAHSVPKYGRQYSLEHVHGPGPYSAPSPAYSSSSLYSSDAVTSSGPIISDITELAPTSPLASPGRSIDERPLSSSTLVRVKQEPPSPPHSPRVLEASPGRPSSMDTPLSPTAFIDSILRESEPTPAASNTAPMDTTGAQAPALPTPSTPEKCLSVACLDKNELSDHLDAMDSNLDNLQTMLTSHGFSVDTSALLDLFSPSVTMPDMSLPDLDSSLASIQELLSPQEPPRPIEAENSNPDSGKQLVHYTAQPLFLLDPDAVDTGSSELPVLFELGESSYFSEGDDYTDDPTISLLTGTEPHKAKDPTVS
# [5] = molecular target: Nuclear receptor subfamily 5 group A member 2 (Homo sapiens, UniProt O00482); format: functional, cell-based;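 also: HEK293T cells transfected with LRH-1 and a StAR promoter luciferase reporter; potency for inhibitors that lower LRH-1 driven reporter light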
# Steroidogenic factor 1 = Steroidogenic factor 1 (Homo sapiens, UniProt Q13285); experiment: Counterscreen for inverse agonists of the liver receptor homolog-1 (LRH-1; NR5A2): Luminescence-based cell-based high throughput dose response assay to identify inverse agonists of the Steroidogenic Factor 1 Nuclear Receptor (SF1; NR5A1).; format: functional
# [6] = nonselective StAR promoter luciferase inhibitors – cell-based, luminescence, luciferase reporter, counter-screen for LRH-1 inverse agonist project, dose response (AID 651969); format: functional
# [7] = molecular target: T3, Nuclear receptor subfamily 0 group B member 1 (Homo sapiens, UniProt P51843); format: functional, cell-based;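 also: HEK293T cells transfected with SF-1 and DAX-1 plus StAR promoter luciferase reporter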
# T3 sequence (P51843 whole entry): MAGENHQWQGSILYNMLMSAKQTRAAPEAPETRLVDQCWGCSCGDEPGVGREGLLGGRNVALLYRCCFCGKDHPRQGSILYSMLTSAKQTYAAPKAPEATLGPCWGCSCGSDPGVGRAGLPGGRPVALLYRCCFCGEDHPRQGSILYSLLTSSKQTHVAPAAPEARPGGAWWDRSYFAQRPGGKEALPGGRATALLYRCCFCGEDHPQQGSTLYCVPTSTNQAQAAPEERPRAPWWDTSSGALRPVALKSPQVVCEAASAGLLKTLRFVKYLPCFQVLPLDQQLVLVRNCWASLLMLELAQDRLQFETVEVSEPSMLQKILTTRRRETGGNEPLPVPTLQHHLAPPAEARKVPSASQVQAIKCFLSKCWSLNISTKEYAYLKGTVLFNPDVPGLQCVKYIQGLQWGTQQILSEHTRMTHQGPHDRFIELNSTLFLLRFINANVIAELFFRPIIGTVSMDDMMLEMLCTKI
# cells [8] = format: functional, cell-based
# Galanin receptor type 3 = Galanin receptor type 3 (Homo sapiens, UniProt O60755); experiment: Fluorescence-based cell-based primary high throughput dose response assay to identify antagonists of the Galanin Receptor 3 (GalR3).; format: functional
# [9] = NIH3T3 cell viability loss – ATP luminescence, mouse fibroblasts, counter-screen, dose response (AID 2010); format: functional, cell-based;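 also: cells exposed to compound for about 90 hours before reading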
# cells [10] = format: functional, cell-based; details: HEK-CNG
# [11] = molecular target: DNA dC->dU-editing enzyme APOBEC-3A (Homo sapiens, UniProt P31941); experiment: Dose Response confirmation of small molecule APOBEC3A DNA Deaminase Inhibitors via a fluorescence-based single-stranded DNA deaminase assay. [Related pubchem assays (depositor defined):AID493011, AID493024]; format: functional
# [12] = Trypanosoma cruzi growth suppression in host cells – NIH3T3 host cells, beta-gal luminescence, confirmation (AID 2044); format: functional, cell-based;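 also: intracellular parasites grown in NIH/3T3 mouse fibroblasts as host cells; luminescent beta-galactosidase reporter signal from transgenic T. cruzi replicating inside host cells; inhibitors lower the luminescence signal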
# [13] = molecular target: DNA dC->dU-editing enzyme APOBEC-3G (Homo sapiens, UniProt Q9HC16); format: functional;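 also: Dose-response counterscreen measuring inhibition of APOBEC3G DNA deaminase activity, run while confirming APOBEC3A inhibitors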
# [14] = molecular target: Long-chain-fatty-acid--AMP ligase FadD28 (Mycobacterium tuberculosis, UniProt P9WQ59); experiment: Fluorescence polarization aasay to screen for inhibitors that compete for the binding of FadD28 to a bisubstrate Measured in Biochemical System Using Plate Reader - 2147-01_Inhibitor_Dose_CherryPick_Activity.; format: functional, Mycobacterium tuberculosis H37Rv
# [15] = inhibitors of EBV LMP1 NF-kappaB signaling – cell-based, luciferase reporter, luminescence, dry powder, set 2, dose response (AID 624376); format: functional
# [16] = general mammalian cell viability loss – activator set, cherry-pick, cytotoxicity control for miR-122 modulator project, dose response (AID 720690); format: functional, cell-based;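 also: HEK293T human cells scored for general mammalian cytotoxicity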
# [17] = molecular target: Adenosylmethionine-8-amino-7-oxononanoate aminotransferase (Mycobacterium tuberculosis, UniProt P9WQ81); experiment: Mycobacterium tuberculosis BioA enzyme inhibitor Measured in Biochemical System Using Plate Reader - 2163-02_Inhibitor_Dose_CherryPick_Activity.; format: functional, Mycobacterium tuberculosis UT205
# [18] = viability loss in CEM21 cells – cell-based, CellTiter-Glo luminescence, cherry-picked, cytotoxicity control for viral fusion inhibitor project, dose response (AID 652042); format: functional;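 also: potency for signal decrease meaning cytotoxicity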
# [19] = blockers of HIV-1 envelope-mediated cell-cell fusion – cherry-pick, dose response (AID 652057); format: functional, cell-based
# [20] = molecular target: T4, Low molecular weight phosphotyrosine protein phosphatase (Homo sapiens, UniProt P24666); format: functional; details: read-out: IC50_Mean
# T4 sequence (P24666 whole entry): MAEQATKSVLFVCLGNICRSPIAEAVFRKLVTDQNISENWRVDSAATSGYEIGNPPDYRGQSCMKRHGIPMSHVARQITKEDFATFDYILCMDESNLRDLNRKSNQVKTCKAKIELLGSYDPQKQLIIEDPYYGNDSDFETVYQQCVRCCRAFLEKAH
# [21] = molecular target: T4, Low molecular weight phosphotyrosine protein phosphatase; format: functional; details: read-out: IC50_Mean; remark: listed apart in the source
# [22] = molecular target: T5, Carboxy-terminal domain RNA polymerase II polypeptide A small phosphatase 1 (Homo sapiens, UniProt Q9GZU7); experiment: CTDSP1 inhibitors, concentration-response, biochemical, absorbance readout, ultra-high-throughput screen actives (AID 540297); format: functional
# T5 sequence (Q9GZU7 whole entry): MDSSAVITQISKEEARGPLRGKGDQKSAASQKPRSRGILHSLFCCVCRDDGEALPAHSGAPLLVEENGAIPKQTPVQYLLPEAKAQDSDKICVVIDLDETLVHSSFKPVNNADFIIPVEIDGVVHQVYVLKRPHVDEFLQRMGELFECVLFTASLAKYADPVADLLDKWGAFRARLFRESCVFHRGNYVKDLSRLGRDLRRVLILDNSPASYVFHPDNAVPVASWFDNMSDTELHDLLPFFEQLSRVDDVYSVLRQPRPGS
# [23] = luciferase reporter signal suppression in cells – H4 neuroglioma cells, luminescence, dose response (AID 1990); format: functional, cell-based
# Vero = experiment: cells; format: functional, cell-based; details: Chlorocebus sabaeus
# [24] = viability of uninfected HEp-2 cells – cell-based, HTS, cytotoxicity control for RSV inhibitor project, dose response (AID 2410); format: functional; details: human respiratory syncytial virus
# [25] = Luminescence Cell-Based Dose Response HTS to Identify Inhibitors of 5'UTR Stem-Loop Driven Prion Protein mRNA Translation in H4 Neuroglioblastoma Cells. [Related pubchem assays: 1827 (Project Summary), 1813 (Primary HTS)]; format: functional
# [26] = alpha-synuclein stem-loop luciferase translation blockers – H4 neuroglioma cells, luminescence, confirmation (AID 1988); format: functional, cell-based
# cells [27] = experiment: cells
# [28] = Fluorescence-based cell-based high throughput dose response assay for inhibitors of the interaction of nucleotide-binding oligomerization domain containing 2 (NOD2) and the receptor-interacting serine-threonine kinase 2 (RIPK2).; format: functional; details: Homo sapiens
# Protein Wnt-3a = Protein Wnt-3a (Mus musculus, UniProt P27467); experiment: antagonism of Wnt3a pathway luciferase reporter – Wnt-LIGHT cells, luminescence, selectivity assay for Gli-SUFU antagonist project, dose response (AID 651570); format: functional; details: read-out: IC50_Mean;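 also: Wnt-LIGHT reporter cells stimulated with conditioned medium from Wnt3a-producing cells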
# [29] = loss of viability in HepG2 cells – cell-based, CellTiter-Glo, cherry-picked, cytotoxicity control for Shn3 inhibitor project, dose response (AID 624134); format: functional
# [30] = non-specific 3'UTR reporter inhibition in Clone20-Shn3RL – cell-based, Renilla luciferase, cherry-picked, counter-screen for Shn3 inhibitor project, dose response (AID 624133); format: functional
# [31] = reduction of Shn3 3'UTR-driven luciferase in osteoblasts – cell-based, Clone20 osteoblasts, firefly luciferase, cherry-picked, dose response (AID 624132); format: functional;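 also: firefly luciferase luminescence from reporter carrying the Shn3 3'UTR in osteoblasts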
# INS1 = experiment: INS-1E survival protection against cytokine death – cell-based, luminescence, retest, dose response (AID 449756); format: functional; details: Rattus norvegicus;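 also: cell death triggered by IL-1 beta plus TNF-alpha plus IFN-gamma mixture; protective hits raise ATP signal compared with cytokine alone wells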
# Sequence of Adenosylmethionine-8-amino-7-oxononanoate aminotransferase (P9WQ81 whole entry, the tested form may be a part): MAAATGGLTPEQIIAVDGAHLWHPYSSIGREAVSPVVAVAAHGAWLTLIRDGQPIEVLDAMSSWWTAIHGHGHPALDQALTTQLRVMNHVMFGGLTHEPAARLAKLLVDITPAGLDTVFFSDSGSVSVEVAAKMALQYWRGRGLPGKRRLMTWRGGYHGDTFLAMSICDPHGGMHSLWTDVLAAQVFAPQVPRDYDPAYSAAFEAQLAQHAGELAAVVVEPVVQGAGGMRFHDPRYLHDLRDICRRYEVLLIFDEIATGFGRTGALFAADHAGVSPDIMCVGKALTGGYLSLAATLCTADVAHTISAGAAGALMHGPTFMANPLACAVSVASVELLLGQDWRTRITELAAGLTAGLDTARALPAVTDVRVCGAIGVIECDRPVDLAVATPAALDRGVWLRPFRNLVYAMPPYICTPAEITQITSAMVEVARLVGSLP
# Sequence of Histone-lysine N-methyltransferase NSD2 (O96028 whole entry): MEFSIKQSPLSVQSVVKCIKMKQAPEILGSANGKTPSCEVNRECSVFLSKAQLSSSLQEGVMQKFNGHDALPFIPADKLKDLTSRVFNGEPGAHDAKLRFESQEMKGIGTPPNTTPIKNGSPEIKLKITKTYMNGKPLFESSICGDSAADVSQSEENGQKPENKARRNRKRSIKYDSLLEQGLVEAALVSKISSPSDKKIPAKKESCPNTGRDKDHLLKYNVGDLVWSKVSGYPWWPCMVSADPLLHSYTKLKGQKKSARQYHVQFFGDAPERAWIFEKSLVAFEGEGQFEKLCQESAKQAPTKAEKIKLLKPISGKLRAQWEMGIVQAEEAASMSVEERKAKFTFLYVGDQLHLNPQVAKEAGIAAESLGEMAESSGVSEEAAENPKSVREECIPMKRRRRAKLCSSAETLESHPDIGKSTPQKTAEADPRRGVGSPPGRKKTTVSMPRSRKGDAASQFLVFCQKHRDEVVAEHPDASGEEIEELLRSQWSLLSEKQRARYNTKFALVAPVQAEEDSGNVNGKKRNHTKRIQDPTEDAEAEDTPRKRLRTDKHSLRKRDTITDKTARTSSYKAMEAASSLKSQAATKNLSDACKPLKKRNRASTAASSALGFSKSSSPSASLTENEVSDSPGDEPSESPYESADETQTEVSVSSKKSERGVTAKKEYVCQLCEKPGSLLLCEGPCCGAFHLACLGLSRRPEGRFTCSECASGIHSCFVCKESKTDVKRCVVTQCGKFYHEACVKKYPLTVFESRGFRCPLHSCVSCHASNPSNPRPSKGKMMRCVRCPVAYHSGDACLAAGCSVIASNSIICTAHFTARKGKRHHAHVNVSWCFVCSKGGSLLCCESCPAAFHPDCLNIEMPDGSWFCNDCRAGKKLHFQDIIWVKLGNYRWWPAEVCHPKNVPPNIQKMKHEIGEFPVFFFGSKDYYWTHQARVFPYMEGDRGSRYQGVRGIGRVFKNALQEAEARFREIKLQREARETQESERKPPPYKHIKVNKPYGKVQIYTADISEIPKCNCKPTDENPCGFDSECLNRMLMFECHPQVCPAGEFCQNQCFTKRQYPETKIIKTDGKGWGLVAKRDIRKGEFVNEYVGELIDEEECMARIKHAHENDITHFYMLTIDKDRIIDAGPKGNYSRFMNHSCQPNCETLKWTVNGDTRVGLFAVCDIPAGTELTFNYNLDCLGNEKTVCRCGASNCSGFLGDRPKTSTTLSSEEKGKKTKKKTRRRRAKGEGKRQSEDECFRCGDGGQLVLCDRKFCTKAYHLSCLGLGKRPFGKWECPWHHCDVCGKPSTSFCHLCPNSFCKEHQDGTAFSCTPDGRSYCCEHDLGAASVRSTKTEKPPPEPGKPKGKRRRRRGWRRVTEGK
# Sequence of Steroidogenic factor 1 (Q13285 whole entry): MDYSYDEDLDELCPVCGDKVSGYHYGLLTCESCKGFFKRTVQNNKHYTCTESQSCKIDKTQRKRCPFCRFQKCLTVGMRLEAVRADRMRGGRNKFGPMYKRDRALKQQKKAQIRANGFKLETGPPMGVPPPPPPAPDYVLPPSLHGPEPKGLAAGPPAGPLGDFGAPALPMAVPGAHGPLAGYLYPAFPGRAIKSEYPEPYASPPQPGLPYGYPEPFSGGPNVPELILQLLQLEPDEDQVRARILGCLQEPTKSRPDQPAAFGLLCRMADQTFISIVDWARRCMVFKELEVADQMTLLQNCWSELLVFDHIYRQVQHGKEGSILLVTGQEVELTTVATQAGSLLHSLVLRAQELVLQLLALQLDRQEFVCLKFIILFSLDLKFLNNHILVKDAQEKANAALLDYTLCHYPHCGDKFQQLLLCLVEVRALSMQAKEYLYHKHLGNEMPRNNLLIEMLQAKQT
# Sequence of Long-chain-fatty-acid--AMP ligase FadD28 (P9WQ59 whole entry): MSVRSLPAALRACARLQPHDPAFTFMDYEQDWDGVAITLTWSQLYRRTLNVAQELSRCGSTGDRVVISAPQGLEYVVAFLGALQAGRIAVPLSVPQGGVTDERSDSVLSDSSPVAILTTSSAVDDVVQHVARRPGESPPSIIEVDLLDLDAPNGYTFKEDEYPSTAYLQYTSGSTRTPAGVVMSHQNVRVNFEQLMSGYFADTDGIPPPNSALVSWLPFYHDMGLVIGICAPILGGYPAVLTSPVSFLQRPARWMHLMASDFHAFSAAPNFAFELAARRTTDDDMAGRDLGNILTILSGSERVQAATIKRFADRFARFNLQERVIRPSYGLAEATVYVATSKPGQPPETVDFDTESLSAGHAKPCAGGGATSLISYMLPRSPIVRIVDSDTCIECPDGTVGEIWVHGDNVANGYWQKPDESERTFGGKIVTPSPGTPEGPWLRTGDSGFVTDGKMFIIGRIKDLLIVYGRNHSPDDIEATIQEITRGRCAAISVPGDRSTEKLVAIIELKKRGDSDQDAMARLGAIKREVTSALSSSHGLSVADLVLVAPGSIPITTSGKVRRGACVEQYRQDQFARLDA
# Sequence of FAD-linked sulfhydryl oxidase ALR (P55789 whole entry): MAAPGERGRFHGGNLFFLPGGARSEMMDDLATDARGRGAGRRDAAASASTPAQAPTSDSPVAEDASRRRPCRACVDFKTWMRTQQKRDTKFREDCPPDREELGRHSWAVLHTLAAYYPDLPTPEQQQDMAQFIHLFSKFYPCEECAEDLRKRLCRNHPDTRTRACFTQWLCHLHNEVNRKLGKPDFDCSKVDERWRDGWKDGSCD
# Sequence of Nuclear receptor subfamily 5 group A member 2 (O00482 whole entry): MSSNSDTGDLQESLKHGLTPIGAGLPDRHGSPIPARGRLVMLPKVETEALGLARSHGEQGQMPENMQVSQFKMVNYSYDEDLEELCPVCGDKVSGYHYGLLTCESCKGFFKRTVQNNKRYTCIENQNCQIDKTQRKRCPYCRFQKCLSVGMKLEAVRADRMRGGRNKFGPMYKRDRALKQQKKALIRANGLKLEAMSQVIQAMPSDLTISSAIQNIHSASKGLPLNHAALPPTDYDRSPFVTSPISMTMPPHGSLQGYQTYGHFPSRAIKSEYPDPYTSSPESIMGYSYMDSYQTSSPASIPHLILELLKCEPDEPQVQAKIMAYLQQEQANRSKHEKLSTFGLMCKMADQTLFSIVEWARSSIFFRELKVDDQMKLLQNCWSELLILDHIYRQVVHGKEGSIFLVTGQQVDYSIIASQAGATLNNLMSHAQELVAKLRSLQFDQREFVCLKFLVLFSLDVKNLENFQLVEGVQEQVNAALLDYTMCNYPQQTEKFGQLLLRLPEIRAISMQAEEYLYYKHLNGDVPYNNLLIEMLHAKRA
# Sequence of Galanin receptor type 3 (O60755 whole entry): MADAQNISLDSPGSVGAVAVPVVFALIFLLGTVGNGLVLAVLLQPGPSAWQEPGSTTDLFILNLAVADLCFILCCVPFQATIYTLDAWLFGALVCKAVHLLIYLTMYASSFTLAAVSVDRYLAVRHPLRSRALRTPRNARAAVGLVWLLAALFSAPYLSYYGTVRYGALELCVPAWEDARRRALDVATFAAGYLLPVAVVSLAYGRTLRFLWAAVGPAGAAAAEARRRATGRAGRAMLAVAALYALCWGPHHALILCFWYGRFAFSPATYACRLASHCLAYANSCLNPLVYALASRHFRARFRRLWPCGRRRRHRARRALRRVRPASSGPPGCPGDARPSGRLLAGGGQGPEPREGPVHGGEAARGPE
# Sequence of Large T antigen (P03070 whole entry): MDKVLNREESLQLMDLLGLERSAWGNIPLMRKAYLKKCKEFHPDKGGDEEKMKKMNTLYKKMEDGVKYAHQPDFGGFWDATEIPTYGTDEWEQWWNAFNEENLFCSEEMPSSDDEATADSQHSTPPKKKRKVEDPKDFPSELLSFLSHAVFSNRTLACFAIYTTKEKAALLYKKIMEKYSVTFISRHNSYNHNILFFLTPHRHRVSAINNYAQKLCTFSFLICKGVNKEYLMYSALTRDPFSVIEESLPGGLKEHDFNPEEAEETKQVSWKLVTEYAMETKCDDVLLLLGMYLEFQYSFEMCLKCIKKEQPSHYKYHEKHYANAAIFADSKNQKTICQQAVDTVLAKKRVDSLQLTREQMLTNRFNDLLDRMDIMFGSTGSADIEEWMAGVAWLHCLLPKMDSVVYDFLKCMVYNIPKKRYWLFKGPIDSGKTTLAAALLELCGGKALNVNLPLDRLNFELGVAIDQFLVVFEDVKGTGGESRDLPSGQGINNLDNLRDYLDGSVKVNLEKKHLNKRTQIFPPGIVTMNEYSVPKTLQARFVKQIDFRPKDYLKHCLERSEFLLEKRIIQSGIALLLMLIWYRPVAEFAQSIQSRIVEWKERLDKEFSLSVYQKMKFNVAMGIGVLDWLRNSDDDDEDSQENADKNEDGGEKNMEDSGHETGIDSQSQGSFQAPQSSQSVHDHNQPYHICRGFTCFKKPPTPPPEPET
# Sequence of DNA dC->dU-editing enzyme APOBEC-3A (P31941 whole entry): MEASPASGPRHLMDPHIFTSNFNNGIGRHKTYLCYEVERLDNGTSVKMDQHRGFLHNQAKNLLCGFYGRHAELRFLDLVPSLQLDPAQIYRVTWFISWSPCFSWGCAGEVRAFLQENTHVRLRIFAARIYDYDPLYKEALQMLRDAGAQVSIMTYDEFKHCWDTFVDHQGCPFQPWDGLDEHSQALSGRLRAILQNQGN
smiles,measurement,setting,value
CCN1CCN(c2ccc(N)cc2C)CC1,IC50,Large T antigen,6.6 µM (active)
same,AC50,[1],> 20 µM (inactive)
same,AC50,[2],0.278 µM (active)
same,AC50,[3],1.73 µM (active)
Cc1c(Cl)cccc1NC(=O)CS(=O)(=O)c1ccccc1,EC50,[4],> 195 µM (not active)
same,IC50,[5],3.98 µM (active)
same,IC50,Steroidogenic factor 1,9.39 µM (active)
same,IC50,[6],35.8 µM (inactive)
CCN1CCN(c2ccc(N)cc2)CC1,AC50,[1],> 20 µM (inactive)
same,AC50,[2],1.47 µM (active)
same,AC50,[3],4.5 µM (active)
Cc1cc(C(=O)NCCc2ccc(Cl)cc2)c(C)o1,IC50,[7],> 67.5 µM (inactive)
same,IC50,cells [8],> 67.5 µM (inactive)
CC1(C)CC(N2CCCCC2)=CC(=[N+]2CCCCC2)C1,IC50,Galanin receptor type 3,3.67 µM (active)
same,EC50,[9],21.5 µM (active)
same,EC50,cells [10],> 29.9 µM (inactive)
same,IC50,[11],2.2 µM (active)
same,EC50,[12],0.369 µM (active)
same,IC50,[13],4.57 µM (active)
O=C(NCCSCc1ccc(Cl)cc1Cl)c1ccc(CN2CCOCC2)cc1,AC50,[14],15.7 µM (active)
COc1ccc(NC(=O)N(C)C[C@@H]2Oc3cc(C#CCC(C)C)ccc3S(=O)(=O)N([C@@H](C)CO)C[C@@H]2C)cc1,AbsAC35,[15],43.42 µM
same,AC50,[16],26.8 µM (active)
CNC(=O)C[C@H]1CC[C@@H]2[C@H](COC[C@@H](O)CN2C(=O)Nc2ccc(Cl)c(Cl)c2)O1,AC50,[17],1.88 µM (active)
CCOC(=O)C1(CCc2ccccc2)CCN(C(=O)CN2CCOC2=O)CC1,AC50,[17],3.89 µM (active)
COCCCNC(=O)c1sc2ncnc(N3CCc4ccccc4C3)c2c1C,AC50,[18],6.66 µM (active)
same,AC50,[19],3.98 µM (active)
CC(/C=N/NC(=O)c1ccc(Br)cc1)=C\c1ccccc1,IC50,[20],28.5 µM (inactive)
same,IC50,[21],17.2 µM (active)
CCc1ccc(NC(=O)C[S+]([O-])CC(=O)Nc2ccc(N3CCOCC3)cc2)cc1 (centres undefined),IC50,[22],5.78 µM (active)
same,IC50,[20],16.8 µM (active)
same,IC50,[21],17.4 µM (active)
CCOC(=O)c1ccc(NC(=S)N(CCN(C)C)Cc2cccs2)cc1,AC50,[14],> 100 µM (inactive)
Nc1cnn(C2OC(CO)C(O)C2O)c(=O)n1 (centres undefined),EC50,[23],14.3 µM (active)
same,IC50,Vero,11.8 µM (active)
same,IC50,[7],> 22.5 µM (inactive)
same,CC50,[24],5.98 µM (active)
same,IC50,cells [8],> 67.5 µM (inactive)
same,EC50,[25],> 120 µM (not active)
same,EC50,[26],14.7 µM (active)
same,IC50,cells [27],1.91 µM (active)
CCOC(=O)[C@]12Cc3c(cc(OC)c(OC)c3OC)[C@H]1N(C1CCCCC1)C(=O)c1cc(OC)ccc12,IC50,[28],2.36 µM (active)
O=C(c1cc2sccc2n1Cc1ccc(F)cc1)N1CCN(c2nc3ccccc3s2)CC1,IC50,Protein Wnt-3a,5.49 µM (active)
same,AC50,[29],3.48 µM (active)
same,AC50,[30],1.71 µM (active)
same,AC50,[31],1.36 µM (active)
same,AC50,INS1,3.42 µM (active)
CCCNC(=O)c1sc2c(c1C(=O)Nc1ccccn1)CCCC2,IC50,[5],14.5 µM (inactive)
same,IC50,Steroidogenic factor 1,8.39 µM (active)
same,IC50,[6],35.9 µM (inactive)
